Data set [1] in a line: Functional CPE-based assay to measure dose dependent changes in cell viability from drug treatment in Vero E6 miRFP670 cells (cotreated with P-gp inhibitor, CP100356). Cells are treated with antiviral candidates that have been serially diluted. Cytotoxicity is reported via analysis of MTS assays in uninfected cells. The assay has been performed by KU Leuven. Type of data set: toxicity, Vero C1008. The conditions noted are these: chlorocebus sabaeus, p-gp concentration 500 nM. For orientation: Tetrazolium dyes change colour on reduction, which living cells bring about.

A short description of data set [2]: Functional assay to measure dose dependent changes in cell viability from drug treatment in Vero E6 miRFP670 cells (cotreated with P-gp inhibitor, CP100356) that are infected with Dengue virus type 2 New Guinea C. […] Cytotoxicity is reported via via analysis of DAPI count using high-content imager. The assay has been performed by KU Leuven. The format is toxicity, cell-based, Vero C1008. The following applies: chlorocebus sabaeus, p-gp concentration 500 nM.

The mark [3] stands for this setting: Vero E6 miRFP670 cells, with CP100356 (P-gp inhibitor, concentration not stated).
Setting [4] is: with CP100356 (P-gp inhibitor, concentration not stated).

Where “and” joins values, the source holds several entries; their conditions need not be identical. Equal values may be shown once.

Usually CC50 stands for the concentration giving 50% cytotoxicity. As for `Cn1c(=O)[nH]c2c(C(=O)Nc3ccc4c(c3)CNC4)cc(Br)cc21`, the results for the CC50 in data set [1] (setting [3]) and in data set [2] (setting [4]) were 34.2 µM and above 50 µM, respectively.
On the same counts, the results for `CC(C)n1cc2c(C(=O)Nc3ccc4c(c3)CNC4)cc(Cl)cc2n1` are 11.8 µM and 22.7 µM.
On the same counts, the results for `O=C(Nc1ccc2c(c1)CNC2)c1cc(Cl)cc2c1NCCC2` are 6.83 µM and 24.8 µM.
On the same counts, the results for `O=C(NCC(F)F)[C@H](Nc1ccc2c(c1)CNC2)c1cc(F)cc2[nH]ccc12` are above 50 µM and 31.1 µM.
Turning to `N#Cc1cc2c(cc1NC(=O)c1cc(F)cc3[nH]ncc13)CNC2`, the CC50 in data set [1] (setting [3]) and in data set [2] (setting [4]) was above 50 µM each time.
As for `COC(=O)c1cc(Br)cc2c(Cc3ccc(-c4nnn[nH]4)cc3)c[nH]c12`, the CC50 in data set [1] (setting [3]) turned out to be 36.9 µM; in data set [2] (setting [4]), 9.83 µM.
Consider `O=C1Cc2cc(C(=O)Nc3ccc4c(c3)CNC4)ccc2N1`, for which the CC50 was 8.74 µM and > 50 µM in data set [1] (vero c1008); above 50 µM in data set [2] (setting [4]).
With `N#CCc1cc(NC(=O)c2cc(F)cc3[nH]ncc23)cc2c1CNC2`, the CC50 in data set [1] (setting [3]) and in data set [2] (setting [4]) was above 50 µM in each case.
On to `Cc1cc(-c2cc(F)cc(C(=O)Nc3ccc4c(c3)CNC4)c2)[nH]n1`, for which the CC50 in data set [1] (setting [3]) and in data set [2] (setting [4]) was above 50 µM throughout.
Take `Cc1cccc(-c2nc3c(C(=O)Nc4ccc5c(c4)CNC5)cc(Cl)cc3[nH]2)c1O`: the CC50 in data set [1] (setting [3]) came out at 3.03 µM; in data set [1] (vero c1008) it was 3.17 µM; in data set [2] (vero c1008), 8.94 µM; in data set [2] (setting [4]), 9 µM.
With `O=C(Nc1ccc2c(c1)CNC2)c1cc(Cl)cc2[nH]c(-c3cc(C4CC4)[nH]n3)nc12`, the CC50 in data set [1] (setting [3]) is 1.51 µM; in data set [2] (setting [4]), 1.27 µM.
For `O=C(Nc1ccc2c(n1)CNC2)c1cc(Cl)cc2[nH]ncc12`, in that order: above 50 µM and above 50 µM.
On the same counts, the results for `O=C(Nc1ccc2c(c1)CNC2)c1cccc2[nH]c(C(F)(F)F)cc12` are 47.3 µM and above 50 µM.
Consider `O=C(NCC(F)F)[C@H](Nc1cc2c(cc1Br)CNC2)c1cc(Cl)cc(C2CC2)c1`, for which the CC50 in data set [1] (setting [3]) is 5.82 µM; in data set [2] (setting [4]) it was 6.39 µM.
Turning to `O=C(Nc1cc2c(c(C3=CCS(=O)(=O)CC3)c1)CNC2)c1cc(F)cc2[nH]ncc12`, the CC50 in data set [1] (setting [3]) and in data set [2] (setting [4]) was above 50 µM throughout.
As to `O=C(NCCC1CC1)[C@H](Nc1ccc2c(c1)CNC2)c1cc(Cl)cc(C2CC2)c1`, the figures for the CC50 in data set [1] (setting [3]) and in data set [2] (setting [4]) were 11.8 µM and 16.7 µM, respectively.
On the same counts, the results for `CCOCCNC(=O)[C@H](Nc1ccc2c(c1)CNC2)c1cc(Cl)cc2[nH]ncc12` are above 50 µM and 9.94 µM.
On the same counts, the results for `O=C(Nc1ccc2c(c1)CNC2)c1cc(F)cc2[nH]c(-c3ccc(F)cc3)nc12` are 6.47 µM and 4.33 µM.
As to `O=C(NC1CCOCC1)[C@H](Nc1ccc2c(c1)CNC2)c1cc(Cl)cc2[nH]ncc12`, the CC50 in data set [1] (setting [3]) and in data set [2] (setting [4]) was above 50 µM each time.
`CCCn1cc2c(C(=O)Nc3ccc4c(c3)CNC4)cc(Cl)cc2n1`: the values for the CC50 in data set [1] (setting [3]) and in data set [2] (setting [4]) were 17.4 µM and 21.5 µM, respectively.
Consider `CC(C)(C)OC(=O)N1Cc2ccc(N[C@H](C(=O)O)c3cc(Cl)cc4[nH]ncc34)cc2C1`, for which the CC50 in data set [1] (setting [3]) is above 50 µM; in data set [2] (setting [4]), 28.9 µM.
For `N#Cc1ccc(-c2nc3c(C(=O)Nc4ccc5c(c4)CNC5)cc(F)cc3[nH]2)cc1`, in that order: above 50 µM and above 50 µM.
Take `O=C(NCC(F)F)[C@H](Nc1cnc2c(c1)CNC2)c1cc(Cl)cc(C2CC2)c1`: the CC50 in data set [1] (setting [3]) and in data set [2] (setting [4]) was above 50 µM throughout.
In the case of `Cc1nc2c(C(=O)Nc3ccc4c(c3)CNC4)cc(Cl)cc2[nH]1`, the CC50 came out at 4.77 µM in data set [1] (setting [3]) and 6.02 µM in data set [2] (setting [4]).
`O=C(Nc1ccc2c(c1)CNC2)c1cc(Cl)cc2[nH]c(-c3ccnn3C3CC3)nc12`: the CC50 turned out to be 1.78 µM in data set [1] (setting [3]) and 11.7 µM in data set [2] (setting [4]).
For `O=C(Nc1cnc2c(c1)CNC2)c1cc(F)cc2[nH]ncc12`, in that order: above 50 µM and above 50 µM.
For `O=C(Nc1ccc2c(c1)CNC2)c1cccc2cn[nH]c12`, in that order: 47.8 µM and above 50 µM.
On the same counts, the results for `Clc1cc(CNc2ccc3c(c2)CNC3)c2cn[nH]c2c1` are 29.8 µM and 21.4 µM.
`O=C(Nc1cc2c(cc1Br)CNC2)c1cc(Cl)cc2[nH]ncc12`: the CC50 in data set [1] (setting [3]) came out at 1.85 µM; in data set [2] (setting [4]), 13.5 µM.
On the same counts, the results for `O=C(Nc1ccc2c(c1)CNC2)c1cc(Cl)cc2ccccc12` are 10.1 µM and 25.1 µM.
On the same counts, the results for `O=C(Nc1cc(Cl)cc(C(=O)Nc2ccc(-n3nn[nH]c3=O)cc2)c1)OCc1ccccc1` are above 50 µM and 31.8 µM.
On the same counts, the results for `O=C(Nc1cc2c(c(-c3ccnnc3)c1)CNC2)c1cc(Cl)cc2[nH]ncc12` are above 50 µM and 25.8 µM.
`O=C1Cc2c(cccc2C(=O)Nc2ccc3c(c2)CCNCC3)N1`: the CC50 in data set [1] (setting [3]) and in data set [2] (setting [4]) was above 50 µM each time.
Consider `O=C(Nc1ccc2c(c1)CNC2)c1cccc2[nH]c(=O)[nH]c12`, for which the CC50 in data set [1] (setting [3]) is above 50 µM; in data set [2] (setting [4]), 33.3 µM.
As for `O=C(NCC(F)F)[C@H](Nc1ccc2c(c1)CNC2)c1cc(F)cc2[nH]ncc12`, the CC50 in data set [1] (setting [3]) and in data set [2] (setting [4]) was above 50 µM throughout.
On to `COc1cc(-c2cc(NC(=O)c3cc(F)cc4[nH]ncc34)cc3c2CNC3)ccn1`, for which the CC50 in data set [1] (setting [3]) and in data set [2] (setting [4]) was above 50 µM throughout.
For `O=C(Nc1cc2c(c(C3=CC[C@H](O)CC3)c1)CNC2)c1cc(Cl)cc2[nH]ncc12`, the CC50 in data set [1] (setting [3]) and in data set [2] (setting [4]) was above 50 µM in each case.
Take `O=C(Nc1cc(Cl)cc(-c2ccc3[nH]c(C(=O)O)cc3c2)c1)OCc1ccccc1`: the CC50 came out at 25.2 µM in data set [1] (setting [3]), 14.3 µM in data set [2] (vero c1008) and 27.1 µM in data set [2] (setting [4]).
As for `O=C(Nc1cc2c(cc1C1CC1)CNC2)c1cc(F)cc2[nH]ncc12`, the CC50 in data set [1] (setting [3]) was above 50 µM; in data set [2] (setting [4]), 10.1 µM.
Take `O=C(Nc1ccc2c(c1)CNC2)c1cc(F)cc2[nH]c(-c3ccccc3)nc12`: the CC50 in data set [1] (setting [3]) was 5.81 µM; in data set [1] (vero c1008) it was 4.83 µM; in data set [2] (vero c1008) it was > 50 µM and 6.86 µM.
As for `N[C@H]1Cc2ccc(NC(=O)c3cccc4c3CC(=O)N4)cc2C1`, the CC50 in data set [1] (setting [3]) and in data set [2] (setting [4]) was above 50 µM throughout.
As for `O=C(Nc1cc(Cl)cc(-c2cnn(Cc3ccc(C(=O)O)cc3)c2)c1)OCc1ccccc1`, the CC50 turned out to be 35.5 µM in data set [1] (setting [3]) and 24 µM in data set [2] (setting [4]).
For `FC(F)(F)Oc1cc(Cl)cc2c(Cc3ccc(-c4nnn[nH]4)cc3)c[nH]c12`, in that order: 30.6 µM and 11.1 µM.
With `O=C(Nc1cc2c(c(C3=CCOCC3)c1)CNC2)c1cc(F)cc2[nH]ncc12`, the CC50 in data set [1] (setting [3]) and in data set [2] (setting [4]) was above 50 µM in each case.
`COc1ccccc1-c1nc2c(C(=O)Nc3ccc4c(c3)CNC4)cc(F)cc2[nH]1`: the CC50 was above 50 µM in data set [1] (setting [3]) and 15.6 µM in data set [2] (setting [4]).
For `O=C(Nc1ccc2c(c1)CNC2)c1cc(Cl)cc2[nH]c(-c3ccc(F)cc3O)nc12`, in that order: 2.19 µM and 1.64 µM.
With `CC(C)NC(=O)[C@H](Nc1ccc2c(c1)CNC2)c1cc(Cl)cc2[nH]c(-c3ccccc3)nc12`, the CC50 in data set [1] (vero c1008) was 5.66 µM and 9.23 µM and 13.7 µM; in data set [2] (vero c1008), 23.2 µM and 7.47 µM and 13.6 µM.
